Experiments:
Experiment in all cases: relative viability (nuclei count vs DMSO), 5 days (fraction); higher = more cells survive
HCC-827 = tested on: HCC-827
In short: (§1)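 After 5 days of treatment, lung cancer cells in 1536-well plates were fixed and stained in a single step (final 0.05% Triton X-100, 1% formaldehyde, 1 ug/ml Hoechst) and their nuclei counted on 4× images. Treatment had been applied by pin tool the day after seeding as one drug alone or as a fixed anchor-drug dose with five library-drug doses (not always all listed) in √10 steps. Relative viability is the nuclei count of treated wells divided by that of vehicle wells, and values are medians of duplicate plates.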

NCI-H2170 = tested on: NCI-H2170
In short: as §1

NCI-H2085 = tested on: NCI-H2085
In short: as §1

LU99A = tested on: LU99A
In short: as §1

NCI-H1975 = tested on: NCI-H1975
In short: as §1

BEN = tested on: BEN
In short: as §1

NCI-H647 = tested on: NCI-H647
In short: as §1

H3255 = tested on: H3255
In short: as §1

NCI-H1437 = tested on: NCI-H1437
In short: as §1

HCC-44 = tested on: HCC-44
In short: as §1

COR-L 105 = tested on: COR-L 105
In short: as §1

EPLC-272H = tested on: EPLC-272H
In short: as §1

LOU-NH91 = tested on: LOU-NH91
In short: as §1

PC-3 [JPC-3] = tested on: PC-3 [JPC-3]
In short: as §1

LCLC-97TM1 = tested on: LCLC-97TM1
In short: as §1

NCI-H2087 = tested on: NCI-H2087
In short: as §1

EKVX = tested on: EKVX
In short: as §1

NCI-H1666 = tested on: NCI-H1666
In short: as §1

201T = tested on: 201T
In short: as §1

NCI-H650 = tested on: NCI-H650
In short: as §1

SW 1573 = tested on: SW 1573
In short: as §1

COc1cc2nccc(Oc3ccc(NC(=O)Nc4cc(C)on4)c(Cl)c3)c2cc1OC [Tivozanib] + Cc1nc(NC(=O)N2CCC[C@H]2C(N)=O)sc1-c1ccnc(C(C)(C)C(F)(F)F)c1 [Alpelisib] (partner 2 µM)
relative viability (HCC-827; first compound 0.005 µM): 0.902 | relative viability (HCC-827; first compound 0.01581 µM): 0.992 | relative viability (HCC-827; first compound 0.05 µM): 1.04 | relative viability (HCC-827; first compound 0.1581 µM): 0.98 | relative viability (HCC-827; first compound 0.5 µM): 1.02 | relative viability (NCI-H2170; first compound 0.005 µM): 0.885 | relative viability (NCI-H2170; first compound 0.01581 µM): 0.952 | relative viability (NCI-H2170; first compound 0.05 µM): 0.799 | relative viability (NCI-H2170; first compound 0.5 µM): 0.867 | relative viability (NCI-H2085; first compound 0.005 µM): 1.02 | relative viability (NCI-H2085; first compound 0.01581 µM): 0.978 | relative viability (NCI-H2085; first compound 0.05 µM): 0.905 | relative viability (NCI-H2085; first compound 0.1581 µM): 0.963 | relative viability (NCI-H2085; first compound 0.5 µM): 0.642 | relative viability (LU99A; first compound 0.005 µM): 0.484 | relative viability (LU99A; first compound 0.01581 µM): 0.555 | relative viability (LU99A; first compound 0.05 µM): 0.521 | relative viability (LU99A; first compound 0.5 µM): 0.469 | relative viability (NCI-H1975; first compound 0.005 µM): 0.587 | relative viability (NCI-H1975; first compound 0.01581 µM): 0.652 | relative viability (NCI-H1975; first compound 0.05 µM): 0.672 | relative viability (NCI-H1975; first compound 0.1581 µM): 0.62 | relative viability (NCI-H1975; first compound 0.5 µM): 0.643 | relative viability (BEN; first compound 0.005 µM): 0.991 | relative viability (BEN; first compound 0.01581 µM): 1.04 | relative viability (BEN; first compound 0.05 µM): 1.03 | relative viability (BEN; first compound 0.5 µM): 1.05 | relative viability (NCI-H647; first compound 0.005 µM): 1.22 | relative viability (NCI-H647; first compound 0.01581 µM): 1.17 | relative viability (NCI-H647; first compound 0.05 µM): 1.1 | relative viability (NCI-H647; first compound 0.1581 µM): 0.803 | relative viability (NCI-H647; first compound 0.5 µM): 0.958 | relative viability (H3255; first compound 0.005 µM): 0.727 | relative viability (H3255; first compound 0.01581 µM): 0.716 | relative viability (H3255; first compound 0.05 µM): 0.684 | relative viability (H3255; first compound 0.1581 µM): 0.689 | relative viability (H3255; first compound 0.5 µM): 0.615 | relative viability (NCI-H1437; first compound 0.005 µM): 1.02 | relative viability (NCI-H1437; first compound 0.01581 µM): 1 | relative viability (NCI-H1437; first compound 0.05 µM): 1 | relative viability (NCI-H1437; first compound 0.1581 µM): 0.943 | relative viability (NCI-H1437; first compound 0.5 µM): 0.959 | relative viability (HCC-44; first compound 0.005 µM): 0.815 | relative viability (HCC-44; first compound 0.01581 µM): 0.758 | relative viability (HCC-44; first compound 0.05 µM): 0.803 | relative viability (HCC-44; first compound 0.1581 µM): 0.756 | relative viability (HCC-44; first compound 0.5 µM): 0.831 | relative viability (COR-L 105; first compound 0.01581 µM): 1.2 | relative viability (COR-L 105; first compound 0.05 µM): 0.933 | relative viability (COR-L 105; first compound 0.1581 µM): 1.04 | relative viability (COR-L 105; first compound 0.5 µM): 1.07 | relative viability (EPLC-272H; first compound 0.005 µM): 0.964 | relative viability (EPLC-272H; first compound 0.01581 µM): 0.918 | relative viability (EPLC-272H; first compound 0.05 µM): 1.05 | relative viability (EPLC-272H; first compound 0.1581 µM): 0.723 | relative viability (EPLC-272H; first compound 0.5 µM): 0.862 | relative viability (LOU-NH91; first compound 0.005 µM): 0.69 | relative viability (LOU-NH91; first compound 0.01581 µM): 0.698 | relative viability (LOU-NH91; first compound 0.05 µM): 0.778 | relative viability (LOU-NH91; first compound 0.1581 µM): 0.732 | relative viability (LOU-NH91; first compound 0.5 µM): 0.752 | relative viability (PC-3 [JPC-3]; first compound 0.005 µM): 0.988 | relative viability (PC-3 [JPC-3]; first compound 0.01581 µM): 1.11 | relative viability (PC-3 [JPC-3]; first compound 0.05 µM): 1.15 | relative viability (PC-3 [JPC-3]; first compound 0.1581 µM): 0.957 | relative viability (PC-3 [JPC-3]; first compound 0.5 µM): 0.997 | relative viability (LCLC-97TM1; first compound 0.005 µM): 0.191 | relative viability (LCLC-97TM1; first compound 0.01581 µM): 0.206 | relative viability (LCLC-97TM1; first compound 0.1581 µM): 0.237 | relative viability (LCLC-97TM1; first compound 0.5 µM): 0.247 | relative viability (NCI-H2087; first compound 0.005 µM): 1.04 | relative viability (NCI-H2087; first compound 0.01581 µM): 1.03 | relative viability (NCI-H2087; first compound 0.05 µM): 1.18 | relative viability (NCI-H2087; first compound 0.1581 µM): 0.886 | relative viability (NCI-H2087; first compound 0.5 µM): 1.04 | relative viability (EKVX; first compound 0.005 µM): 0.903 | relative viability (EKVX; first compound 0.01581 µM): 0.93 | relative viability (EKVX; first compound 0.05 µM): 0.958 | relative viability (EKVX; first compound 0.1581 µM): 0.888 | relative viability (EKVX; first compound 0.5 µM): 0.872 | relative viability (NCI-H1666; first compound 0.005 µM): 1 | relative viability (NCI-H1666; first compound 0.01581 µM): 0.853 | relative viability (NCI-H1666; first compound 0.05 µM): 1.06 | relative viability (NCI-H1666; first compound 0.1581 µM): 0.965 | relative viability (NCI-H1666; first compound 0.5 µM): 1.01 | relative viability (201T; first compound 0.005 µM): 0.993 | relative viability (201T; first compound 0.01581 µM): 1 | relative viability (201T; first compound 0.05 µM): 1.05 | relative viability (201T; first compound 0.1581 µM): 1.02 | relative viability (201T; first compound 0.5 µM): 1.08 | relative viability (NCI-H650; first compound 0.005 µM): 1.06 | relative viability (NCI-H650; first compound 0.01581 µM): 1.13 | relative viability (NCI-H650; first compound 0.05 µM): 1.1 | relative viability (NCI-H650; first compound 0.1581 µM): 1.02 | relative viability (NCI-H650; first compound 0.5 µM): 0.967 | relative viability (SW 1573; first compound 0.005 µM): 0.796 | relative viability (SW 1573; first compound 0.01581 µM): 0.825 | relative viability (SW 1573; first compound 0.05 µM): 0.784 | relative viability (SW 1573; first compound 0.1581 µM): 0.639 | relative viability (SW 1573; first compound 0.5 µM): 0.776

— the supplement of paper PMC10307832
